Results reported in patent US10130096B2, “Method for protecting useful plants or plant propagation material” (SYNGENTA PARTICIPATIONS AG, priority 2011, dated 2018).

Experiments:
Type in all cases: cell-based
[1] = tested on: Botryotinia fuckeliana (Botrytis cinerea); test: Botryotinia fuckeliana liquid culture growth inhibition; details: photometric, 3-4 days after application, read-out: control on Botryotinia fuckeliana
Description: (§1) Conidia of the fungus from cryogenic storage are directly mixed into nutrient broth (Vogels broth). After placing a (DMSO) solution of test compound into a microtiter plate (96-well format), the nutrient broth containing the fungal spores is added.

[2] = tested on: Monographella nivalis (Microdochium nivale); test: Monographella nivalis liquid culture growth inhibition; details: photometric, 4-5 days after application, read-out: control on Monographella nivalis
Description: as §1, with “(PDB potato dextrose” for “(Vogels”, “added. The test plates are incubated at 24° C. and the inhibition of growth is determined photometrically 4-5 days after application.” for “added.”

[3] = tested on: Thanatephorus cucumeris (Rhizoctonia solani); test: Thanatephorus cucumeris liquid culture growth inhibition; details: photometric, 3-4 days after application, read-out: control on Thanatephorus cucumeris
Description: Mycelia fragments of a newly grown liquid culture of the fungus are directly mixed into nutrient broth (PDB potato dextrose broth). After placing a (DMSO) solution of the test compounds into a microtiter plate (96-well format), the nutrient broth containing the fungal material is added. The test plates are incubated at 24° C. and the inhibition of growth is determined photometrically 3-4 days after application.

[4] = tested on: Glomerella lagenarium (Colletotrichum lagenarium); test: Glomerella lagenarium liquid culture growth inhibition; details: Colletotrichum orbiculare, photometric, 3-4 days after application, read-out: control on Glomerella lagenarium
Description: (§2) Conidia of the fungus from cryogenic storage are directly mixed into nutrient broth (PDB potato dextrose broth). After placing a (DMSO) solution of test compound into a microtiter plate (96-well format), the nutrient broth containing the fungal spores is added.

Fusarium culmorum = Fusarium culmorum liquid culture growth inhibition; details: photometric, 3-4 days after application, read-out: control on Fusarium culmorum
Description: Conidia of the fungus from cryogenic storage are directly mixed into nutrient broth (PDB potato dextrose broth). After placing a (DMSO) solution of test compound into a microtiter plate (96-well format), the nutrient broth containing the fungal spores is added. The test plates are incubated at 24° C. and the inhibition of growth is determined photometrically 3-4 days after application.

[5] = tested on: Mycosphaerella arachidis (Cercospora arachidicola); test: Mycosphaerella arachidis liquid culture growth inhibition; details: photometric, 4-5 days after application, read-out: control on Mycosphaerella arachidis
Description: as §2

Pythium ultimum = Pythium ultimum liquid culture growth inhibition; details: Globisporangium ultimum, photometric, 2-3 days after application, read-out: control on Pythium ultimum
Description: as §2, with “Mycelia fragments and oospores of a newly grown liquid culture” for “Conidia”, “fungus” for “fungus from cryogenic storage”, “mycelia/spore mixture” for “spores”

Measured: inhibition of growth at 200 ppm

OB1OCc2ccc(Cl)cc21 [Compound 6, 6-Chloro-3H-benzo[c][1,2]oxaborol-1-ol]
≥ 80%: all assays above

OB1OCc2c1ccc1ccccc21 [Compound 16, 1H-2-Oxa-3-bora-cyclopenta[a]naphthalen-3-ol]
≥ 80%: [1] | [2] | [4] | [5]

OB1OC(c2ccccc2)c2ccccc21 (stereo not drawn) [Compound 19, 3-Phenyl-3H-benzo[c][1,2]oxaborol-1-ol]
≥ 80%: [2] | [4] | [5] | Pythium ultimum

N[C@H](COB1OCc2cc(Cl)ccc21)Cc1ccccc1 [Compound 20, (S)-1-Benzyl-2-(5-chloro-3H-benzo[c][1,2]oxaborol-1-yloxy)-ethylamine]
≥ 80%: all assays above

CC(C)(N)COB1OCc2cc(Cl)ccc21 [Compound 21, 2-(5-Chloro-3H-benzo[c][1,2]oxaborol-1-yloxy)-1,1-dimethyl-ethylamine]
≥ 80%: all assays above

N[C@@H](COB1OCc2cc(Cl)ccc21)c1ccccc1 [Compound 23, (R)-2-(5-Chloro-3H-benzo[c][1,2]oxaborol-1-yloxy)-1-phenyl-ethylamine]
not listed: [3]
≥ 80%: all other assays above

N[C@H](COB1OCc2cc(Cl)ccc21)c1ccccc1 [Compound 25, (S)-2-(5-Chloro-3H-benzo[c][1,2]oxaborol-1-yloxy)-1-phenyl-ethylamine]
not listed: [3]
≥ 80%: all other assays above

c1ccc2c(c1)COB2Oc1cccc2cccnc12 [Compound 31, 8-(3H-Benzo[c][1,2]oxaborol-1-yloxy)-quinoline]
not listed: [3]
≥ 80%: all other assays above

CC(C)(N)COB1OCc2ccccc21 [Compound 32, 2-(3H-Benzo[c][1,2]oxaborol-1-yloxy)-1,1-dimethyl-ethylamine]
not listed: [3]
≥ 80%: all other assays above

CC(C)(C)c1ccc2c(c1)COB2OCCN [Compound 33, 2-(5-tert-Butyl-3H-benzo[c][1,2]oxaborol-1-yloxy)-ethylamine]
≥ 80%: [5]

CC(C)(C)c1ccc2c(c1)COB2O [Compound 34, 5-tert-Butyl-3H-benzo[c][1,2]oxaborol-1-ol]
≥ 80%: [2] | [4] | [5]

NCCOB1OCc2cc(Oc3ccccc3)ccc21 [Compound 35, 2-(5-Phenoxy-3H-benzo[c][1,2]oxaborol-1-yloxy)-ethylamine]
≥ 80%: [2] | [4] | [5]
